Assay results: ChEMBL document CHEMBL5214890 (Eur J Med Chem, 2021)
Calls of active or inactive are those of the source. No cut-off for these calls is given here.

Tests used:
[1] = target: T1, Glucagon-like peptide 1 receptor (Homo sapiens, UniProt P43220); assay: Agonist activity at human GLP-1R expressed in HEK293 cells incubated for 30 mins and assessed as increase in cAMP accumulation measured by HTRF assay; assay type: functional, cell-based
[2] = target: T1, Glucagon-like peptide 1 receptor; assay: Agonist activity at human GLP-1R expressed in HEK293 cells incubated for 30 mins and assessed as increase in cAMP accumulation measured by HTRF assay relative to control; assay type: functional, cell-based; set-up: concentration or dose not given beside the values; conditions: filed as agonist
Mus musculus [3] = assay: Antidiabetic activity in DIO mouse assessed as reduction in blood glucose at 10 nmol/kg, ip pretreated with compound and followed by glucose challenge and measured by oral glucose tolerance test; assay type: functional, organism-based
Mus musculus [4] = assay: Antidiabetic activity in db/db mouse assessed as reduction in blood glucose at 10 nmol/kg, ip pretreated with compound and followed by glucose challenge and measured by oral glucose tolerance test; assay type: functional, organism-based
Mus musculus [5] = assay: Antidiabetic activity in db/db mouse assessed as reduction in plasma insulin level at 10 nmol/kg, ip pretreated with compound and followed by glucose challenge and measured by oral glucose tolerance test; assay type: functional, organism-based
Mus musculus [6] = assay: Antidiabetic activity in overnight fasted male C57BL/6J mouse at 10 nmol/kg, ip administered at -30 mins and measured by oral glucose tolerance test; assay type: functional, organism-based
Mus musculus [7] = assay: Antidiabetic activity in male DIO mouse assessed as reduction in acute food intake at 10 nmol/kg, sc measured at 0 to 2 hrs post administration; assay type: functional, organism-based
Mus musculus [8] = assay: Antidiabetic activity in overnight fasted male C57BL/6J mouse assessed as reduction in acute food intake at 30 nmol/kg, sc administered at -0.5 hrs; assay type: functional, organism-based
Rattus norvegicus [9] = assay: Antidiabetic activity in overnight fasted male Sprague-Dawley rat assessed as reduction in food intake at 10 nmol/kg, ip; assay type: functional; set-up: scale not given: the % may be the effect or the level left
Rattus norvegicus [10] = assay: Antidiabetic activity in overnight fasted male Sprague-Dawley rat assessed as reduction in food intake at 100 nmol/kg, ip; assay type: functional; set-up: scale not given: the % may be the effect or the level left
[11] = Toxicity in overnight fasted male Sprague-Dawley rat assessed as induction of Pica behaviour by measuring kaolin intake at 10 to 300 nmol/kg, ip; conditions: in vivo, dose 10-300 nmol/kg
[12] = Cmax in male Sprague-Dawley rat at 25 nmol/kg, iv administered as single dose and measured after 24 hrs by LC-MS/MS analysis; assay type: ADME, organism-based; set-up: dose 25 nmol/kg, time 24 hrs, route iv; conditions: in vivo
[13] = Half-life in male Sprague-Dawley rat at 25 nmol/kg, iv administered as single dose and measured after 24 hrs by LC-MS/MS analysis; assay type: ADME, organism-based; conditions: in vivo
[14] = AUC (infinity) in male Sprague-Dawley rat at 25 nmol/kg, iv administered as single dose and measured after 24 hrs by LC-MS/MS analysis; assay type: ADME, organism-based; set-up: time 24 hrs, dose 25 nmol/kg, route iv; conditions: in vivo
[15] = Cmax in male Sprague-Dawley rat at 25 nmol/kg, sc administered as single dose and measured after 24 hrs by LC-MS/MS analysis; assay type: ADME, organism-based; set-up: time 24 hrs, dose 25 nmol/kg, route sc; conditions: in vivo
[16] = AUC (inifinity) in male Sprague-Dawley rat at 25 nmol/kg, sc administered as single dose and measured after 24 hrs by LC-MS/MS analysis; assay type: ADME, organism-based; set-up: dose 25 nmol/kg, time 24 hrs, route sc; conditions: in vivo
Mus musculus [17] = assay: Antidiabetic activity in non-fasted male db/db mouse assessed as reduction in glucose level at 10 to 100 nmol/kg, sc; assay type: functional, organism-based; conditions: dose 10-100 nmol/kg, DDE = dose-dependent effect
Mus musculus [18] = assay: Antidiabetic activity in male DIO mouse assessed as decrease in fasted blood glucose at 100 nmol/kg, sc administered twice daily for 7 days; assay type: functional, organism-based; conditions: time 7.0 day
[19] = Toxicity in male DIO mouse assessed as change in liver ALT level at 100 nmol/kg, sc administered twice daily for 7 days; assay type: organism-based; conditions: in vivo, 168 h, time 7 day
[20] = Toxicity in male DIO mouse assessed as change in Cre at 100 nmol/kg, sc administered twice daily for 7 days; assay type: organism-based; conditions: in vivo, 168 h, time 7 day
[21] = Toxicity in male DIO mouse assessed as change in BUN at 100 nmol/kg, sc administered twice daily for 7 days; assay type: organism-based; conditions: in vivo, 168 h, time 7 day
[22] = Toxicity in male DIO mouse assessed as change in serum amylase at 100 nmol/kg, sc administered twice daily for 7 days; assay type: organism-based; conditions: in vivo, 168 h, time 7 day
[23] = Toxicity in male db/db mouse assessed as reduction in body weight at 100 nmol/kg, sc administered twice daily for 7 days; assay type: organism-based; conditions: in vivo, 168 h, time 7 day
Mus musculus [24] = assay: Antidiabetic activity in male db/db mouse assessed as decrease in cumulative food intake at 100 nmol/kg, sc administered twice daily for 7 days; assay type: functional, organism-based; conditions: time 7.0 day
Mus musculus [25] = assay: Antidiabetic activity in male db/db mouse assessed as decrease in fasted blood glucose at 100 nmol/kg, sc administered twice daily for 7 days; assay type: functional, organism-based; conditions: time 7.0 day
[26] = Toxicity in male db/db mouse assessed as change in Cre at 100 nmol/kg, sc administered twice daily for 7 days; assay type: organism-based; conditions: in vivo, 168 h, time 7 day
[27] = Toxicity in male db/db mouse assessed as change in BUN at 100 nmol/kg, sc administered twice daily for 7 days; assay type: organism-based; conditions: in vivo, 168 h, time 7 day
[28] = Toxicity in male db/db mouse assessed as change in serum lipase at 100 nmol/kg, sc administered twice daily for 7 days; assay type: organism-based; conditions: in vivo, 168 h, time 7 day
[29] = Toxicity in male db/db mouse assessed as change in serum amylase at 100 nmol/kg, sc administered twice daily for 7 days; assay type: organism-based; conditions: in vivo, 168 h, time 7 day
Mus musculus [30] = assay: Antidiabetic activity in male db/db mouse assessed as reduction in food consumption at 30 nmol/kg, sc administered twice daily for 35 days; assay type: functional, organism-based; conditions: time 35.0 day
Mus musculus [31] = assay: Antidiabetic activity in male db/db mouse assessed as improvement in glucose tolerance at 30 nmol/kg, sc administered twice daily for 35 days; assay type: functional, organism-based; conditions: time 35.0 day
Mus musculus [32] = assay: Antidiabetic activity in male db/db mouse assessed as increase in islet number at 30 nmol/kg, sc administered twice daily for 35 days; assay type: functional, organism-based; conditions: time 35.0 day
[33] = Toxicity in male db/db mouse assessed as change in BUN level at 30 nmol/kg, sc administered twice daily for 35 days; assay type: organism-based; conditions: in vivo, 840 h, time 35 day
[34] = Toxicity in male db/db mouse assessed as change in serum amylase level at 30 nmol/kg, sc administered twice daily for 35 days; assay type: organism-based; conditions: in vivo, 840 h, time 35 day
[35] = Toxicity in male db/db mouse assessed as change in serum lipase level at 30 nmol/kg, sc administered twice daily for 35 days; assay type: organism-based; conditions: in vivo, 840 h, time 35 day
Mus musculus [36] = assay: Antidiabetic activity in male […] assessed as reduction in body weight at 30 nmol/kg, sc administered twice daily for 3 weeks; assay type: functional; set-up: scale not given: the % may be the effect or the level left
Mus musculus [37] = assay: Antidiabetic activity in male […] assessed as reduction in fasted glucose level at 30 nmol/kg, sc administered twice daily for 3 weeks; assay type: functional, organism-based
Mus musculus [38] = assay: Antidiabetic activity in male […] assessed as improvement in glucose tolerance at 30 nmol/kg, sc administered twice daily for 3 weeks; assay type: functional, organism-based
Mus musculus [39] = assay: Antidiabetic activity in male […] assessed as increase in plasma FGF21 level at 30 nmol/kg, sc administered twice daily for 3 weeks; assay type: functional, organism-based
Mus musculus [40] = assay: Antidiabetic activity in male […] assessed as decrease in serum triglycerides level at 30 nmol/kg, sc administered twice daily for 3 weeks; assay type: functional, organism-based
Mus musculus [41] = assay: Antidiabetic activity in male […] assessed as decrease in serum LDL-C level at 30 nmol/kg, sc administered twice daily for 3 weeks; assay type: functional, organism-based
[42] = Toxicity in male […] assessed as normalization of hepatic lipid content at 30 nmol/kg, sc administered twice daily for 3 weeks; assay type: organism-based; conditions: in vivo, 504 h

T1 sequence (P43220 whole entry): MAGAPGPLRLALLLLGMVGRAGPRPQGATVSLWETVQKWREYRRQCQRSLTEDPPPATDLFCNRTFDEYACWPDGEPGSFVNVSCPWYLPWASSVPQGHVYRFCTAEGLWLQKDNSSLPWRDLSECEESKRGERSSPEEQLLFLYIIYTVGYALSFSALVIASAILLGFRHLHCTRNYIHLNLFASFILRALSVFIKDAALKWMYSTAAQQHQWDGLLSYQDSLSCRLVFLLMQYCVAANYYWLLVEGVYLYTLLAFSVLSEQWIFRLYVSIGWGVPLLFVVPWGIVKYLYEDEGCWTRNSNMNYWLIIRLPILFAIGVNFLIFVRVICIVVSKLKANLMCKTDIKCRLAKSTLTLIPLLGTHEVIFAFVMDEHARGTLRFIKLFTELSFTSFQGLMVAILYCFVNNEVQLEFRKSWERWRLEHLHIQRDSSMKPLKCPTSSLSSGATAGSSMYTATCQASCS

Compound: CCCCCCCCCCCCCCCC(=O)N[C@@H](CCC(=O)NCCCC[C@H](NC(=O)[C@H](Cc1ccc(O)cc1)NC(=O)[C@H](CCCCN)NC(=O)[C@H](CO)NC(=O)[C@@H](NC(=O)[C@H](CC(=O)O)NC(=O)[C@H](CC(N)=O)NC(=O)[C@@H](NC(=O)[C@H](Cc1ccc(O)cc1)NC(=O)[C@@H](NC(=O)CNC(=O)[C@H](CCC(N)=O)NC(=O)[C@@H](CO)NC(=O)[C@@H](N)Cc1c[nH]cn1)[C@@H](C)O)[C@@H](C)O)C(C)C)C(=O)N[C@@H](CC(=O)O)C(=O)N[C@@H](CO)C(=O)N[C@@H](CCCNC(=N)N)C(=O)N[C@@H](CCCNC(=N)N)C(=O)N[C@@H](C)C(=O)N[C@@H](CCC(N)=O)C(=O)N[C@@H](CC(=O)O)C(=O)N[C@@H](Cc1ccccc1)C(=O)N[C@H](C(=O)N[C@@H](CCC(=O)O)C(=O)N[C@@H](Cc1c[nH]c2ccccc12)C(=O)N[C@@H](CC(C)C)C(=O)N[C@@H](CCCCN)C(=O)N[C@@H](CC(N)=O)C(=O)NCC(=O)NCC(=O)N1CCC[C@H]1C(=O)N[C@@H](CO)C(=O)N[C@@H](CO)C(=O)NCC(=O)N[C@@H](C)C(=O)N1CCC[C@H]1C(=O)N1CCC[C@H]1C(=O)N1CCC[C@H]1C(=O)N[C@@H](CO)C(N)=O)[C@@H](C)CC)C(=O)O
- EC50 [1]: 0.031 nM
- Activity [2]: 132%
- Activity (Mus musculus [3]): Active
- Activity (Mus musculus [4]): Active
- Activity (Mus musculus [5]): Active
- Activity (Mus musculus [6]): Active
- Activity (Mus musculus [7]): Active
- Activity (Mus musculus [8]): Active
- Activity (Rattus norvegicus [9]): 25%
- Activity (Rattus norvegicus [10]): 29%
- Activity [11]: Non-Toxic
- Cmax [12]: 1510 ng/mL
- half-life [13]: 2.6 h
- AUC(0-inf) [14]: 4200 ng·h/mL
- Cmax [15]: 519 ng/mL
- AUC at 24 h [16]: 4610 ng·h/mL
- Activity (Mus musculus [17]): Dde
- Activity (Mus musculus [18]): Active
- Activity [19]: Non-Toxic
- Activity [20]: Non-Toxic
- Activity [21]: Non-Toxic
- Activity [22]: Non-Toxic
- Activity [23]: Non-Toxic
- Activity (Mus musculus [24]): Active
- Activity (Mus musculus [25]): Active
- Activity [26]: Non-Toxic
- Activity [27]: Non-Toxic
- Activity [28]: Non-Toxic
- Activity [29]: Non-Toxic
- Activity (Mus musculus [30]): Active
- Activity (Mus musculus [31]): Active
- Activity (Mus musculus [32]): Active
- Activity [33]: Non-Toxic
- Activity [34]: Non-Toxic
- Activity [35]: Non-Toxic
- Activity (Mus musculus [36]): 28.7%
- Activity (Mus musculus [37]): Active
- Activity (Mus musculus [38]): Active
- Activity (Mus musculus [39]): Active
- Activity (Mus musculus [40]): Active
- Activity (Mus musculus [41]): Active
- Activity [42]: Non-Toxic
